Results published in ChEMBL document CHEMBL1201862, “PubChem BioAssay data set” (2004).
Active and inactive are the calls of the source.

What was measured:
cells [1] = type: functional, cell-based; details: HEK-CNG
Galanin receptor type 3 = Galanin receptor type 3 (Homo sapiens, UniProt O60755); assay: Fluorescence-based cell-based primary high throughput dose response assay to identify antagonists of the Galanin Receptor 3 (GalR3).; type: functional
[2] = molecular target: Matrix metalloproteinase-14 (Homo sapiens, UniProt P50281); assay: Dose Response confirmation of uHTS hits for a small molecule inhibitors of MT1-MMP activation in a fluorescence assay set 1.; type: functional
HeLa = assay: HeLa cell cytotoxicity, dose response, cytotoxicity control, ATP luminescence, cherry-pick samples (AID 687004); type: functional, cell-based; details: Homo sapiens
Mu-type opioid receptor = Mu-type opioid receptor (Homo sapiens, UniProt P35372); type: functional, cell-based;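 further: U2OS cells with beta-arrestin recruitment to OPRM1 by beta-gal complementation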
[3] = molecular target: 5-hydroxytryptamine receptor 2A (Mus musculus, UniProt P35363); type: functional, cell-based;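 further: CHO-K1 cells with tagged receptor and beta-arrestin; agonist potency measured as compound-induced activation of the receptor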
cells [4] = type: functional, cell-based
cells [5] = type: functional, cell-based; remark: listed apart in the source
[6] = molecular target: T1, Trace amine-associated receptor 1 (Homo sapiens, UniProt Q96RJ0); assay: Fluorescence-based cell-based high throughput dose response assay to identify agonists of the human trace amine associated receptor 1 (TAAR1).; type: functional
T1 sequence (Q96RJ0 whole entry): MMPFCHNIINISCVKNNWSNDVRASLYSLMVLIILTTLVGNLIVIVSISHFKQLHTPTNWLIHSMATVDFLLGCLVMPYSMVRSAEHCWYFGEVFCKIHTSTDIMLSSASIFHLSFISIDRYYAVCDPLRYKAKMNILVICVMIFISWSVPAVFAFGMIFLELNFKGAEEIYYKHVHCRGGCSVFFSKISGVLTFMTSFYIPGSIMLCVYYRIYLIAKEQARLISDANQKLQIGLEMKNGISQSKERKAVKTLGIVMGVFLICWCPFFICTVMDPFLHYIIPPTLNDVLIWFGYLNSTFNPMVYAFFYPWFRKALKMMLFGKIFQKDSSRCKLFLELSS

[7] = molecular target: T1, Trace amine-associated receptor 1; assay: Counterscreen for agonists of the human trace amine associated receptor 1 (hTAAR1): Fluorescence-based cell-based high throughput dose response assay to identify hTAAR1 agonist that also desensitize TAAR1 receptor response.; type: functional
[8] = non-specific cell cytotoxicity, dose response, cytotoxicity control for PAX8 inhibitor project, plate reader, dry powder samples (AID 743021); type: functional, cell-based
Paired box protein Pax-8 = Paired box protein Pax-8 (Homo sapiens, UniProt Q06710); assay: inhibitors of PAX8-driven TPO luciferase reporter, dose response, RMG-I cells, cherry-pick (AID 687027); type: functional, cell-based;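 further: luciferase reporter driven by Pax8 target thyroperoxidase promoter measured by SteadyGlo luminescence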
[9] = molecular target: T2, Small ubiquitin-related modifier 1 (Homo sapiens, UniProt P63165); assay: inhibitors of SUMO1 peptide binding, dose response, biochemical, fluorescence polarization, uHTS hits (AID 624382); type: functional; details: read-out: IC50_Mean
[10] = molecular target: T2, Small ubiquitin-related modifier 1; assay: inhibitors of SUMO1 partner interactions, dose response, biochemical, FRET (AID 624383); type: functional; details: read-out: IC50_Mean
[11] = molecular target: T3, Methionyl-tRNA synthetase, putative (Trypanosoma brucei brucei, UniProt Q38C91); type: functional, Trypanosoma brucei brucei strain 927/4 GUTat10.1
T3 sequence (Q38C91 whole entry): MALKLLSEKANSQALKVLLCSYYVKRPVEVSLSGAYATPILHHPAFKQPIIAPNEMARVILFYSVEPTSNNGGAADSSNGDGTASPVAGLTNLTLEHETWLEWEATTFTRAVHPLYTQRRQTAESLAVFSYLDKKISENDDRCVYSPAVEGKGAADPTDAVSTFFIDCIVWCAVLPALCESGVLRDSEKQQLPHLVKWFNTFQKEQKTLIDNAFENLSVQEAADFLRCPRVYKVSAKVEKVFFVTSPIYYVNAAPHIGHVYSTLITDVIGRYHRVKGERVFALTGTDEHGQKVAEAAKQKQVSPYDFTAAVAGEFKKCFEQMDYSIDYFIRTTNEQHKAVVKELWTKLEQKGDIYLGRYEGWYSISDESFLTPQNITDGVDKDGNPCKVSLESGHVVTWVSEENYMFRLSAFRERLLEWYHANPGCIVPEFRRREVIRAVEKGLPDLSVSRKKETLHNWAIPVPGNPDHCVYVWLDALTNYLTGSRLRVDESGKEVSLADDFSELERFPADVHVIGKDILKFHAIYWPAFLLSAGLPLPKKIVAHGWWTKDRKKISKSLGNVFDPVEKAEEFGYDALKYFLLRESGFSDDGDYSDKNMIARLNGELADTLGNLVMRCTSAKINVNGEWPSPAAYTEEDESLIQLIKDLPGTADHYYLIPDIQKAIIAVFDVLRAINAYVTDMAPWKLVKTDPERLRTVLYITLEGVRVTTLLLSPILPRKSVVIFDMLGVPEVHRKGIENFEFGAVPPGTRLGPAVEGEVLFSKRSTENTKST

[12] = Counterscreen for inhibitors of Trypanosoma brucei methionyl tRNA synthetase (MetRS): Luminescence-based cell-based high throughput dose response assay to identify compounds that are cytotoxic to Jurkat human T lymphocyte cells.; type: functional
[13] = molecular target: T3, Methionyl-tRNA synthetase, putative; type: functional, Trypanosoma brucei brucei strain 927/4 GUTat10.1; remark: listed apart in the source
Beta-galactosidase = Beta-galactosidase (Escherichia coli, UniProt Q8VNN2); assay: Dose response counterscreen for EBI2 assay utilizing the enzyme, b-galactosidase.; type: functional
cells [14] = assay: cells
Major prion protein = Major prion protein (Homo sapiens, UniProt P04156); type: functional, cell-based

SMILES: Cc1ccc(CCNc2ncnc(Cl)c2N)cc1
- EC50 (cells [1]): > 29.9 µM (inactive)
- IC50 (Galanin receptor type 3): 0.626 µM (active)

SMILES: CN1C2=CC=CC=CC2=[N+](C)C12C=CC(=[N+]([O-])[O-])C=C2[N+](=O)[O-] (stereo not drawn)
- IC50 [2]: 54.2 µM (inactive)

SMILES: COc1cccc(-c2ccc3c(c2)[C@H]2[C@H](CCN2C(=O)Cc2ccncc2)[C@H](CO)N3C)c1
- AC50 (HeLa): > 52 µM (inactive)

SMILES: Cc1ccc(NC(=O)CN2CCN(c3ccccn3)CC2)cc1S(=O)(=O)N(C)C
- EC50 (Mu-type opioid receptor): 92.5 µM (inactive)
- EC50 [3]: 0.685 µM (active)

SMILES: Cc1cc(C)c(C#N)c(SCC(=O)c2cc(C)n(CCc3ccccc3)c2C)n1
- IC50 (cells [4]): > 29.9 µM (inactive)
- EC50 (cells [5]): > 29.9 µM (inactive)
- EC50 [6]: 1.15 µM (active)
- IC50 [7]: 4.68 µM (active)

SMILES: O=C(NCc1cc(C(F)(F)F)ccc1Cl)c1cccc2c1C(=O)c1ccc(N3CCC(N4CCCCC4)CC3)cc1S2(=O)=O
- AC50 [8]: 19.7 µM (active)
- AC50 (Paired box protein Pax-8): 11.7 µM (active)
- IC50 [9]: > 66.6 µM (inactive)
- IC50 [10]: 11.1 µM (active)

SMILES: COc1ccc(N(CC(=O)NCCSCc2ccc(C)cc2)S(=O)(=O)c2ccccc2)cc1
- AC50 (HeLa): > 52 µM (inactive)

SMILES: Cc1nnc(NC(=O)CSc2n[nH]c3c4cc(Br)ccc4nc-3n2)s1
- IC50 [11]: 1.36 µM (active)
- IC50 [12]: 83.3 µM (inactive)
- IC50 [13]: 3.87 µM (active)

SMILES: CCOC(=O)N1CCN(C(=O)COc2ccc(Br)cc2)CC1
- IC50 (Beta-galactosidase): > 80 µM (inactive)

SMILES: CCC(Sc1ccc2nnc(-c3ccc(F)cc3)n2n1)C(=O)O (stereo not drawn)
- IC50 (cells [14]): > 138 µM (inactive)
- IC50 (Major prion protein): 13 µM (inactive)

SMILES: CC1CC(C)CN(CCOc2cccc(Cl)c2Cl)C1 (stereo not drawn)
- EC50 (Mu-type opioid receptor): 92.5 µM (inactive)
- EC50 [3]: 0.281 µM (active)
